# Columns and labels:
# [1] = tested on: patients with Alagille syndrome (ALGS); assay: ASSERT-EXT open-label extension: safety, TEAEs; format: in vivo, human
# Description: ASSERT-EXT is a Phase 3, multi-center, open-label extension study designed to evaluate the long-term safety and efficacy of 120 μg/kg/day odevixibat in relieving pruritus in patients with ALGS. Patients who participated in the ASSERT trial (see Example 1) and met eligibility criteria for the ASSERT trial were eligible to participate. The duration of the treatment period is 72 weeks, followed by a 4-week Safety Follow-up Period. Clinic visits occur every 4 to 12 weeks. Patients who wish to continue receiving odevixibat after 72 weeks will have the opportunity to remain on treatment in an optional extension period with visits every 16 weeks until the drug is commercially available, provided continued use is supported by the risk-benefit profile, the patient has not been previously withdrawn or discontinued from the study, and the study is not terminated by the Sponsor. The 4-week Safety Follow-up Period will not occur for those who remain on treatment in the optional extension period.
# Day 1 coincided with Week 24 in the ASSERT trial; however, if this was not possible due to logistic issues, patients enrolled in the ASSERT-EXT trial within 28 days of completion of the ASSERT trial. All patients in the ASSERT-EXT trial receive odevixibat 120 μg/kg/day. Two groups were analyzed up to an interim cut-off date of Sep. 9, 2022: treatment-naïve patients who received placebo in ASSERT (i.e., “placebo-odevixibat”) and patients who received odevixibat in ASSERT (i.e., “odevixibat-odevixibat”).
# Safety Analysis. The primary safety analysis for this study included the incidence of total treatment emergent AEs (TEAEs) and TEAEs categorized by causality, severity, and seriousness assessments made by the investigator. Trends in safety were also evaluated for the following assessments: Physical examinations; Concomitant medications; Vital signs; Laboratory test results (including clinical chemistry, hematology, urinalysis, AFP, vitamins A, E, and 25-hydroxy vitamin D, and INR); Liver ultrasound and elastography (where available); and Discontinuations due to Aes.
# [2] = tested on: patients with Alagille syndrome (ALGS); assay: ASSERT: ObsRO sleep parameters and daytime tiredness; format: in vivo, human
# From the text: […] Additional secondary efficacy endpoints were as follows: • Change from baseline in pruritus to Month 6 (Weeks 21 to 24) as measured by the Albireo PRO instrument. • Percentage of patients achieving a clinically meaningful decrease in pruritus (pruritis responders) as measured by the ObsRO/PRO instruments. • Change from baseline through Week 24 in patient reported and observer reported itching and scratching severity scores, respectively, for the morning assessment and for the evening assessment; sleep parameters as measured with the Albireo ObsRO/PRO instruments (e.g., tiredness and number of awakenings); and PedsQL subdomain scores. • Assessment of Global Symptom Relief to from baseline to Weeks 4, 12, and 24 as measured by patient, caregiver, and clinician Global Impression of Symptoms GIS (PGIS, CaGIS, CGIS) items. • Change from baseline to Week 24 in xanthomatosis as assessed by the Clinician Xanthoma Scale; serum bile acid levels; serum ALT concentration; and serum AST concentration; gamma-glutamyl transferase concentration; total bilirubin concentration. • Change from baseline in biochemical markers and measures of bile acid synthesis (autotaxin, p-C4, only in patients >10 kg); and total cholesterol concentration.
# Itching, Scratching, and Sleep Parameters. Itching, observed scratching, and sleep disturbance were recorded twice each day via eDiary. Patients and/or caregivers were instructed to complete the eDiary every day in the morning after the patient woke and in the evening just before the patient went to sleep throughout the study. The eDiary included ObsRO and PRO items. The PRO items assessed severity of itch, aspects of sleep disturbance (morning diary only), and tiredness. The ObsRO items assessed severity of observed scratching, aspects of observed sleep disturbance (morning diary only), and signs of tiredness (evening diary only). The ObsRO and PRO scratching and itch severity items used 0 to 4 response scales.
# [3] = tested on: patients with Alagille syndrome (ALGS); assay: ASSERT: Clinician Xanthoma Scale; format: in vivo, human
# Description: Clinical Assessment of Xanthoma. Changes in xanthoma as assessed by the Clinician Xanthoma Scale were measured at randomization (Study Day 1), Week 12, and Week 24/EOT visits. The clinician's assessment of the participant's xanthomatosis was focused on the number of lesions present and the degree to which the participant's lesions interfered or limited activities.
# patients with ALGS = settings: 6 patients with ALGS; 4 weeks; open-label; cited from earlier work
# [4] = tested on: patients with Alagille syndrome (ALGS); assay: Pooled ASSERT and ASSERT-EXT: TEAEs; format: in vivo, human
# Description: In the completed 24-week ASSERT study, patients with ALGS with history of significant pruritus and elevated serum BAs were randomized 2:1 to once-daily odevixibat 120 μg/kg or placebo, respectively. Patients who completed ASSERT could enter ASSERT-EXT, an ongoing, 72-week open-label extension study in which all patients receive odevixibat 120 μg/kg/day. This pooled analysis included all odevixibat-treated patients from ASSERT and/or ASSERT-EXT and spans from patients' first dose of odevixibat to a data cut-off of Sep. 9, 2022. Assessments over up to 36 weeks of treatment included change in observer-reported scratching scores and sleep parameters, as well as levels of serum BAs, autotaxin (a proposed meditator of pruritus), and 7 alpha-hydroxy-4-cholesten-3-one (C4; a marker of bile acid synthesis). Safety evaluations included assessment of alanine aminotransferase (ALT), total bilirubin, and treatment-emergent adverse events (TEAEs).
# [5] = weeks 21-24, caregiver-reported
structure (smiles),measurement,setting,value
"CCCCC1(CCCC)CN(c2ccccc2)c2cc(SC)c(OCC(=O)N[C@@H](C(=O)N[C@@H](CC)C(=O)O)c3ccc(O)cc3)cc2S(=O)(=O)N1 [odevixibat, 1,1-dioxo-3,3-dibutyl-5-phenyl-7-methylthio-8-(N-{(R)-α-[N-((S)-1-carboxypropyl)carbamoyl]-4-hydroxybenzyl}carbamoylmethoxy)-2,3,4,5-tetrahydro-1,2,5-benzothiadiazepine]",Serious TEAEs,"[1]; 2/49 patients, interim cut-off",4%
same,drug-related serious TEAEs or TEAEs leading to discontinuation or dose reduction,[1]; interim cut-off,No drug-related serious TEAEs or TEAEs leading to discontinuation or dose reduction
same,incidence of drug-related diarrhea,"[1]; n=49, interim cut-off",4%
same,incidence of treatment-emergent diarrhea,"[1]; n=49, interim cut-off",16%
same,tolerability,[1]; treatment for ≥24 weeks,well tolerated
same,mean reduction from baseline in daytime tiredness (5-point scale 0-4),"[2]; baseline to weeks 21 to 24, caregiver-rated",−1.1
same,"LS mean change from baseline, percent of days sleeping with caregiver",[2]; [5],−35%
same,"LS mean change from baseline, percent of days with help falling asleep",[2]; [5],−43%
same,"LS mean change from baseline, percent of days with soothing",[2]; [5],−47%
same,patients with no change from baseline to week 24 in xanthomas,"[3]; 27/35, incl. 25 patients without xanthomas at any time point",77%
same,patients showing improvements in xanthomas,"[3]; baseline to week 24, n=35",20%
same,patients whose Clinician Xanthoma Scale score increased (from 0 to 1),"[3]; baseline to week 24, n=35",3%
same,"effect on sBAs, itch, and sleep disturbance",patients with ALGS,"reduced sBAs, itch, and sleep disturbance in a majority of those patients"
same,TEAEs that led to study discontinuation,[4],No patient
same,patients reporting drug-related diarrhea,[4]; 6 of 52,12%
same,patients reporting drug-related TEAEs,[4]; 15 of 52,29%
same,patients reporting TEAEs,[4]; 43 of 52,83%
same,Any TEAE,[4]; n=52,43 (83) n (%)
same,Drug-related TEAE: Abdominal pain,[4]; n=52,2 (4) n (%)
same,Drug-related TEAE: Abdominal pain upper,[4]; n=52,2 (4) n (%)
same,Drug-related TEAE: Diarrhea,[4]; n=52,6 (12) n (%)
same,Drug-related TEAE: Vomiting,[4]; n=52,2 (4) n (%)
same,Drug-related TEAEs,[4]; n=52,15 (29) n (%)
same,Drug-related serious TEAEs,[4]; n=52,1 (2) n (%)
same,Serious TEAEs,[4]; n=52,6 (12) n (%)
same,Severe TEAEs,[4]; n=52,7 (14) n (%)
same,tolerability,[4]; up to 36 weeks,generally well tolerated
